We go through one compound from US7935718B2, “Treatment of dyskinesia” (Motac Neuroscience Limited, priority 2000, dated 2011).

Each structure is given as a SMILES string.

Assay [1] relates to reserpine-treated rat model of Parkinson's disease. The assay can be described thus: Locomotion (hyperkinesia) after chloro-APB in reserpine-treated parkinsonian rats. In kind it is in vivo. The note with it: reserpine (3 mg/kg) rats, chloro-APB (0.2 mg/kg) + imetit (1 mg/kg) versus vehicle, one hour period. As for the experimental part: The effect of the H3-histamine receptor agonist imetit on dyskinesia was assessed in a reserpine-treated rat model of Parkinson's disease following treatment of the rats with the anti-parkinsonian agent chloro-APB (0.2 mg/kg).
Male Sprague-Dawley rats were split into two groups A and B. Rats in both groups were rendered parkinsonian by subcutaneous administration of reserpine (3 mg/kg) for 18 hours.
After the 18 hours Group A were treated with chloro-APB (0.2 mg/kg) and imetit (1 mg/kg) whereas B were treated with chloro-APB (0.2 mg/kg) and vehicle for imetit only.
The locomotion of the rats in Groups A and B was measured over a one hour period using Benwick locomotor monitors. These locomotion monitors consist of a visually-shielded open-field arena, the perimeter of which is surrounded by a series of infra-red beams arranged at 5 cm intervals. PC-based software (Amlogger) assesses the number of beams broken. The number of beams broken as part of a locomotor movement (mobile counts) or the number of beam breaks while the animal is not locomoting (static counts) were measured. In addition, the system assesses the time for which animals are mobile or static.

Assay [2] deals with MPTP-lesioned marmoset model of Parkinson's disease. The assay can be described thus: L-DOPA-induced mobility and dyskinesia in MPTP-lesioned marmosets. In kind it is in vivo, Marmosets (Callithrix jacchus). The note with it: L-DOPA (8 mg/kg) + imetit 1, 3, 10 mg/kg oral; assessed every 30 minutes for 4 hours. The method, then: The effect of the H3-histamine receptor agonist imetit on L-DOPA-induced dyskinesia was assessed in the MPTP-lesioned marmoset model of Parkinson's disease.
Marmosets (Callithrix jacchus) (bred in a closed colony at the University of Manchester) are rendered parkinsonian by subcutaneous injection of 2 mg kg^−1 MPTP for 5 consecutive days. The marmosets are allowed to recover for a minimum of 10 weeks until their parkinsonism becomes stable. The degree of activity and disability before and after MPTP treatment is assessed using a combination of scales as described in section 2.1.2. Animals are then treated with L-DOPA for at least 3 weeks to prime them to elicit dyskinesia. […]
The behavioural tests were assessed every 30 minutes for 4 hours, by post hoc analysis of video-recordings by an observer blinded to the treatment. […]

With `N=C(N)SCCc1cnc[nH]1` [imetit], the total mobile counts result in assay [1] is reported as “less than those treated with vehicle”. Further, in assay [2], the “L-DOPA-induced mobility (mobility score)” value is on record as “no effect on L-DOPA-induced mobility” and the “severity of L-DOPA-induced dyskinesia (dyskinesia score)” value was “dose-dependent reduction”.
